Results as given in the NIST ThermoML archive (doi:10.1016/j.fluid.2012.08.002).

Assay: xn = mol fraction of the nth substance listed
Settings: 101 kPa, Liquid; for speed of sound: Sing-around technique in a fixed-path interferometer; for mass density: Vibrating tube method

CCCCCCn1cc[n+](C)c1.[Br-] [3-hexyl-1-methyl-1H-imidazolium bromide] + COCCO
Settings | mass density [kg/m3] | speed of sound [m/s]
288.15 K, x1 = 0.0541 | 1003.16 | 1406.2
288.15 K, x1 = 0.1114 | 1033.95 | 1427.1
288.15 K, x1 = 0.2063 | 1075.85 | 1455
288.15 K, x1 = 0.3163 | 1113.65 | 1481.2
288.15 K, x1 = 0.399 | 1136.61 | 1498.5
288.15 K, x1 = 0.5066 | 1160.88 | 1518.9
288.15 K, x1 = 0.5919 | 1177.15 | 1532.1
288.15 K, x1 = 0.7003 | 1194.68 | 1550.1
288.15 K, x1 = 0.8193 | 1210.88 | 1578.5
288.15 K, x1 = 0.905 | 1221.01 | 1610.1
293.15 K, x1 = 0.0541 | 998.827 | 1389.9
293.15 K, x1 = 0.1114 | 1029.8 | 1411.5
293.15 K, x1 = 0.2063 | 1071.89 | 1440.2
293.15 K, x1 = 0.3163 | 1109.92 | 1467.3
293.15 K, x1 = 0.399 | 1132.93 | 1485.4
293.15 K, x1 = 0.5066 | 1157.28 | 1506
293.15 K, x1 = 0.5919 | 1173.58 | 1519.1
293.15 K, x1 = 0.7003 | 1191.1 | 1535.7
293.15 K, x1 = 0.8193 | 1207.23 | 1560
293.15 K, x1 = 0.905 | 1217.37 | 1584.7
298.15 K, x1 = 0.0541 | 994.442 | 1373.6
298.15 K, x1 = 0.1114 | 1025.66 | 1395.9
298.15 K, x1 = 0.2063 | 1067.99 | 1425.3
298.15 K, x1 = 0.3163 | 1106.17 | 1454
298.15 K, x1 = 0.399 | 1129.03 | 1472.5
298.15 K, x1 = 0.5066 | 1153.7 | 1493.4
298.15 K, x1 = 0.5919 | 1169.99 | 1506.4
298.15 K, x1 = 0.7003 | 1187.69 | 1521.9
298.15 K, x1 = 0.8193 | 1203.66 | 1543.4
298.15 K, x1 = 0.905 | 1213.6 | 1563.8
303.15 K, x1 = 0.0541 | 990.104 | 1357.4
303.15 K, x1 = 0.1114 | 1021.6 | 1380.5
303.15 K, x1 = 0.2063 | 1064.1 | 1410.7
303.15 K, x1 = 0.3163 | 1102.4 | 1440.7
303.15 K, x1 = 0.399 | 1125.44 | 1459.6
303.15 K, x1 = 0.5066 | 1150.12 | 1481
303.15 K, x1 = 0.5919 | 1166.5 | 1494.1
303.15 K, x1 = 0.7003 | 1184.24 | 1509.1
303.15 K, x1 = 0.8193 | 1200.22 | 1528.5
303.15 K, x1 = 0.905 | 1210.1 | 1545.7
308.15 K, x1 = 0.0541 | 985.747 | 1341.1
308.15 K, x1 = 0.1114 | 1017.43 | 1365.1
308.15 K, x1 = 0.2063 | 1060.19 | 1396.3
308.15 K, x1 = 0.3163 | 1098.64 | 1427.5
308.15 K, x1 = 0.399 | 1121.85 | 1446.7
308.15 K, x1 = 0.5066 | 1146.54 | 1468.7
308.15 K, x1 = 0.5919 | 1162.92 | 1482
308.15 K, x1 = 0.7003 | 1180.7 | 1496.7
308.15 K, x1 = 0.8193 | 1196.79 | 1514.7
308.15 K, x1 = 0.905 | 1206.71 | 1529.7
313.15 K, x1 = 0.0541 | 981.397 | 1324.9
313.15 K, x1 = 0.1114 | 1013.1 | 1349.9
313.15 K, x1 = 0.2063 | 1056.1 | 1382.4
313.15 K, x1 = 0.3163 | 1094.88 | 1414.3
313.15 K, x1 = 0.399 | 1118.18 | 1433.9
313.15 K, x1 = 0.5066 | 1142.96 | 1456.5
313.15 K, x1 = 0.5919 | 1159.44 | 1470.3
313.15 K, x1 = 0.7003 | 1177.16 | 1484.8
313.15 K, x1 = 0.8193 | 1193.35 | 1501.8
313.15 K, x1 = 0.905 | 1203.34 | 1515.2
318.15 K, x1 = 0.0541 | 976.988 | 1308.7
318.15 K, x1 = 0.1114 | 1009.12 | 1335.8
318.15 K, x1 = 0.2063 | 1052.25 | 1369.4
318.15 K, x1 = 0.3163 | 1091.12 | 1401.5
318.15 K, x1 = 0.399 | 1114.51 | 1421.1
318.15 K, x1 = 0.5066 | 1139.37 | 1444.5
318.15 K, x1 = 0.5919 | 1155.95 | 1458.7
318.15 K, x1 = 0.7003 | 1173.69 | 1473.2
318.15 K, x1 = 0.8193 | 1189.89 | 1489.7
318.15 K, x1 = 0.905 | 1199.95 | 1501.9
